Broadly, the GI50 is the concentration at which growth is held to half of that of the control. What is called TGI is the concentration at which net growth stops. A lower TGI goes with more potent growth arrest.

We go through nine molecules from PubChem BioAssay (NCI).

Molecules are shown by their SMILES.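 Interpolation was linear, between the two tested concentrations surrounding the appropriate level; five concentrations were tested over 48 hours in 96-well plates. GI50: concentration for 50% inhibition of growth. TGI: total growth inhibition.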

Test systems include U251 CNS; SNB-19 CNS; RXF 393 renal; KM12 colon; A549 NSCLC; HT29 colon; HCT-15 colon; UACC-62 melanoma; NCI-H226 lung; SNB-75 CNS.
What all share (test): DTP human tumour cell line panel, 48 h

Consider `O=c1[nH]c2ccccc2cc1-c1nnc(Cc2ccccc2)o1`, for which the GI50 in the assay with U251 CNS was 4.12 µM; in the assay on SNB-19 CNS it was 12.9 µM; in the assay on RXF 393 renal, 2.93 µM; in the assay with KM12 colon, 10.4 µM; in the assay with A549 NSCLC, 15.7 µM; in the assay with HT29 colon it was 3.78 µM. In addition, the GI50 in the assay with HCT-15 colon was 3.3 µM; with UACC-62 melanoma it was 3.43 µM; in the assay with NCI-H226 lung, 11.5 µM; in the assay with SNB-75 CNS it was 6.07 µM. The TGI was 14.9 µM with U251 CNS; 38.1 µM in the assay on SNB-19 CNS; 10.9 µM in the assay on RXF 393 renal; 28.4 µM in the assay with KM12 colon; greater than 100 µM in the assay with A549 NSCLC; 12.9 µM in the assay with HT29 colon. Besides, the TGI in the assay with HCT-15 colon came out at 13.5 µM; with UACC-62 melanoma it was 15.6 µM; in the assay on NCI-H226 lung it was 94.4 µM; in the assay with SNB-75 CNS it was 21.4 µM.

Regarding `Nc1nc(-c2ccccc2)c(CC(=O)O)s1`, the TGI in the assay with U251 CNS, in the assay on SNB-19 CNS, in the assay on RXF 393 renal, in the assay with KM12 colon, in the assay with A549 NSCLC and with HT29 colon was greater than 100 µM each time. For the same molecule, the TGI in the assay with HCT-15 colon, in the assay on UACC-62 melanoma, in the assay with NCI-H226 lung and with SNB-75 CNS was greater than 100 µM throughout.

Turning to `COc1cc2c(c3c1c(=O)c1ccccc1n3C)C=C([N+](=O)[O-])C(C)(C)O2`, the TGI is greater than 100 µM in the assay with U251 CNS; greater than 100 µM with SNB-19 CNS; 0.328 µM with RXF 393 renal; greater than 100 µM with KM12 colon; greater than 100 µM in the assay on A549 NSCLC; greater than 100 µM in the assay with HT29 colon. Further, the total growth inhibition concentration (TGI) in the assay on HCT-15 colon, in the assay on UACC-62 melanoma, in the assay on NCI-H226 lung and with SNB-75 CNS was greater than 100 µM each time.

For `C/C(=C/CCC(C)[C@@H]1CC[C@]2(C)C3=C(CC[C@@]12C)[C@@]1(C)CCC(=O)C(C)(C)[C@@H]1CC3)C(=O)O` (stereo not given in full), the GI50 with U251 CNS is 0.817 µM; with SNB-19 CNS, 1.17 µM; in the assay with RXF 393 renal, 1.51 µM; in the assay on KM12 colon it was 0.747 µM; in the assay on A549 NSCLC it was 0.387 µM; with HT29 colon, 1.39 µM. Also, the GI50 in the assay on HCT-15 colon is 0.974 µM; in the assay with UACC-62 melanoma, 0.469 µM; in the assay with NCI-H226 lung, 1.46 µM; in the assay with SNB-75 CNS, 1.69 µM. Besides, the TGI stood at 2.29 µM in the assay with U251 CNS; 2.68 µM with SNB-19 CNS; 3.08 µM in the assay on RXF 393 renal; 2.3 µM in the assay with KM12 colon; 1.84 µM in the assay on A549 NSCLC; 3.04 µM with HT29 colon. Also, the total growth inhibition concentration (TGI) with HCT-15 colon came out at 3 µM; in the assay on UACC-62 melanoma, 1.76 µM; with NCI-H226 lung it was 4.56 µM; in the assay with SNB-75 CNS, 3.22 µM.

Take `CCc1ccc(Oc2c(-c3ccc(OCc4ccc(Cl)cc4)cc3O)nn(C)c2C(F)(F)F)cc1`: the GI50 in the assay on U251 CNS is 0.357 µM; in the assay on SNB-19 CNS, 0.591 µM; with RXF 393 renal, 1.14 µM; in the assay with KM12 colon, 0.389 µM; with A549 NSCLC, 0.514 µM; with HT29 colon, 0.58 µM. In addition, the GI50 in the assay with HCT-15 colon was 0.365 µM; with UACC-62 melanoma it was 0.516 µM; in the assay with NCI-H226 lung, 1.18 µM; with SNB-75 CNS it was 1.34 µM. Moreover, the TGI stood at 1.36 µM in the assay on U251 CNS; 2.14 µM with SNB-19 CNS; 2.59 µM in the assay on RXF 393 renal; 1.61 µM in the assay on KM12 colon; 1.95 µM in the assay on A549 NSCLC; 2.11 µM in the assay with HT29 colon. The concentration for total growth inhibition (TGI) in the assay on HCT-15 colon stood at 1.45 µM; in the assay on UACC-62 melanoma, 2.25 µM; in the assay on NCI-H226 lung, 3.6 µM; with SNB-75 CNS, 4.49 µM.

Turning to `CCCCCCCCCC1CC(=O)OC23CCCC(=O)C12O3` (stereo not given), the concentration for total growth inhibition (TGI) in the assay on U251 CNS, in the assay on SNB-19 CNS, in the assay on RXF 393 renal, in the assay with KM12 colon, in the assay on A549 NSCLC and with HT29 colon was greater than 100 µM throughout. Further, the TGI in the assay with HCT-15 colon, in the assay with UACC-62 melanoma, with NCI-H226 lung and with SNB-75 CNS was greater than 100 µM throughout.

In the case of `C#COc1cccc(Nc2ncnc3cc(NC(=O)[C@@H](C)Cl)ccc23)c1`, the GI50 in the assay on U251 CNS is 7.29 µM; with SNB-19 CNS, 19.2 µM; in the assay on RXF 393 renal it was 8.12 µM; in the assay on KM12 colon it was 3.25 µM; in the assay on A549 NSCLC, 9.86 µM; with HT29 colon it was 2.41 µM. Moreover, the GI50 in the assay on HCT-15 colon is 3.98 µM; in the assay with UACC-62 melanoma, 5.48 µM; in the assay on NCI-H226 lung, 50.1 µM; in the assay with SNB-75 CNS it was 8.03 µM. For the same molecule, the TGI was greater than 62.5 µM in the assay on U251 CNS; greater than 62.5 µM with SNB-19 CNS; 40.8 µM in the assay on RXF 393 renal; greater than 62.5 µM in the assay with KM12 colon; greater than 62.5 µM in the assay on A549 NSCLC; greater than 62.5 µM with HT29 colon. In addition, the TGI with HCT-15 colon was greater than 62.5 µM; with UACC-62 melanoma, greater than 62.5 µM; with NCI-H226 lung, greater than 62.5 µM; in the assay on SNB-75 CNS, 44.8 µM.

As for `O=C(Nc1nc2ccc(S(=O)(=O)Nc3ccc(C4(C(F)(F)F)CC4)cc3)cc2[nH]1)c1cnccn1`, the GI50 is 4.74 µM with U251 CNS; 4.24 µM in the assay with SNB-19 CNS; 1.12 µM in the assay on RXF 393 renal; 1.03 µM with KM12 colon; 2.88 µM in the assay with A549 NSCLC; 1.2 µM in the assay with HT29 colon. Moreover, the GI50 in the assay on HCT-15 colon was 0.557 µM; with UACC-62 melanoma, 1.51 µM; in the assay with NCI-H226 lung it was 2.08 µM; in the assay with SNB-75 CNS, 1.53 µM. The TGI in the assay on U251 CNS amounted to 22.5 µM; with SNB-19 CNS it was 22 µM; in the assay with RXF 393 renal it was 4.28 µM; in the assay on KM12 colon, 14.4 µM; with A549 NSCLC it was 21.5 µM; in the assay with HT29 colon, 14.4 µM. For the same molecule, the TGI was found to be 14.3 µM in the assay with HCT-15 colon, 15.4 µM in the assay with UACC-62 melanoma, 9.51 µM in the assay with NCI-H226 lung and 6.45 µM in the assay on SNB-75 CNS.

As for `O=c1[nH]c(=S)[nH]c(O)c1/C=C1\C=Nc2ccccc21`, the GI50 in the assay on U251 CNS is 2.11 µM; in the assay on SNB-19 CNS it was 4.53 µM; in the assay with RXF 393 renal it was 3.71 µM; in the assay on KM12 colon, 1.64 µM; in the assay with A549 NSCLC, 37.2 µM; in the assay with HT29 colon, 3.37 µM. Also, the GI50 was 2.78 µM in the assay with HCT-15 colon, 8.26 µM in the assay on UACC-62 melanoma, 12.5 µM in the assay with NCI-H226 lung and 1.73 µM in the assay with SNB-75 CNS. In addition, the TGI in the assay on U251 CNS was 5.87 µM; with SNB-19 CNS, 59.3 µM; in the assay on RXF 393 renal, 14.6 µM; in the assay on KM12 colon, 3.34 µM; with A549 NSCLC, greater than 100 µM; in the assay on HT29 colon, 10.6 µM. Besides, the concentration for total growth inhibition (TGI) in the assay on HCT-15 colon came out at 8.07 µM; in the assay with UACC-62 melanoma it was 46.9 µM; with NCI-H226 lung, 46.1 µM; with SNB-75 CNS it was 5 µM.
